According to US20250360167A1 (Keryx Biopharmaceuticals, Inc., priority 2013, published 2025):

Test system: ferritin
Experiment: Phase 3 trial (Example 1): ferritin
Format: in vivo, human
Set-up: Ferritin, Mean / Ferritin, Median / Ferritin, Change from Baseline, Mean / Ferritin, Change from Baseline, Median / Ferritin, LS Mean: unit not given here
Conditions: for Ferritin, Mean / Ferritin, Median / Ferritin, LS Mean / Ferritin, Change from Baseline, Mean / Ferritin, Change from Baseline, Median / Ferritin, Treatment Differences, LS Mean (KRX-0502) − LS Mean (control), (SE): Table 15
Excerpt: Iron studies including serum iron, ferritin, TSAT, and total iron-binding capacity were done at Screening (Visit 0); at the Randomization Visit (Visit 4); at Visits 7 (Week 4), 9 (Week 8), 11 (Week 12), 12 (Week 16), 13 (Week 20), 14 (Week 24), 15 (Week 28), 16 (Week 32), 17 (Week 36), 18 (Week 40), 19 (Week 44), 20 (Week 48), and 21 (Week 52) of the 52-week Safety Assessment Period; and at Visit 25 (Week 56) of the Efficacy Assessment Period.
Change from baseline in ferritin at Week 52 as compared to baseline (Visit 4). This variable will be analyzed using LOCF methodology. ANCOVA will be employed. The model will include treatment (fixed effect), and baseline (covariate). A sensitivity analysis will be performed using MMRM method.
• 1. Change in serum calcium concentration at Weeks 12, 24, 36, 48, and 52 as compared to baseline (Visit 4). This variable will be analyzed using LOCF methodology. ANCOVA will be employed. The model will include treatment (fixed effect), and baseline (covariate). • 2. Change in ferritin, and TSAT at Weeks 12, 24, 36 and 48 as compared to baseline (Visit 4). This variable will be analyzed using LOCF methodology. ANCOVA will be employed. The model will include treatment (fixed effect), and baseline (covariate). • 3. Change in serum iron and TIBC at Weeks 12, 24, 36, 48, and 52 as compared to baseline (Visit 4). This variable will be analyzed using LOCF methodology. ANCOVA will be employed. The model will include treatment (fixed effect), and baseline (covariate). • 4. Change in Ca x P product at Weeks 12, 24, 36, 48, and 52 as compared to baseline (Visit 4). This variable will be analyzed using LOCF methodology. ANCOVA will be employed. The model will include treatment (fixed effect), and baseline (covariate). • 5. Change in iPTH at Weeks 12, 36, 52, and 56 as compared to baseline (Visit 4). This variable will be analyzed using LOCF methodology. ANCOVA will be employed. The model will include treatment (fixed effect), and baseline (covariate). • 6. Change in serum […], vitamin A, vitamin B-12, vitamin E, vitamin K and folic acid at Weeks 12, 36, and 52 as compared to baseline (Visit 4). This variable will be analyzed using LOCF methodology. ANCOVA will be employed. The model will include treatment (fixed effect), and baseline (covariate). • 7. Change in serum bicarbonate concentration at Weeks 12, 36, and 52 as compared to baseline (Visit 4). This variable will be analyzed using LOCF methodology. ANCOVA will be employed. The model will include treatment (fixed effect), and baseline (covariate). • 8. Change in IV iron intake at Weeks 12, 24, 36, 48, and 52 as compared to baseline (Visit 4). This variable will be analyzed using LOCF methodology. ANCOVA will be employed. The model will include treatment (fixed effect), and baseline (covariate). • 9. Change in the use of EPO (ESA) administered at Weeks 12, 24, 36, 48, and 52 as compared to baseline (Visit 4). This variable will be analyzed using LOCF methodology. ANCOVA will be employed. The model will include treatment (fixed effect), and baseline (covariate). • 10. Change in the use of Vitamin D supplementation (and its analogs) and Sensipar (cinacalcet) at Weeks 12, 24, 36, 48, and 52 as compared to baseline (Visit 4). This variable will be analyzed using LOCF methodology. ANCOVA will be employed. The model will include treatment (fixed effect), and baseline (covariate). • 11. Change in LDL, HDL, and triglycerides at Weeks 12, 36, and 52 as compared to baseline (Visit 4). This variable will be analyzed using LOCF methodology. ANCOVA will be employed. The model will include treatment (fixed effect), and baseline (covariate).

[1] = Day 0 Baseline, Safety Assessment Period

iron (+3), x (1, 2, 3-propanetricarboxylic acid, 2-hydroxy-), y (H2O) [KRX-0502]
Mean Ferritin, LS Mean Difference from Active Control Group at Week 52 (ANCOVA, Table C): 286 ng/mL | Mean Ferritin (Baseline (Day 0), Table C): 595 ng/mL | Ferritin, Mean [1]: 595.00 | Ferritin, Median [1]: 587.00 | Mean Ferritin, Change from Baseline at Week 52 (Table C): 302 ng/mL | Ferritin, LS Mean (Week 12, ANCOVA): 757.75 | Mean Ferritin (Week 12, LOCF, Table C): 751 ng/mL | Ferritin, Change from Baseline, Mean (Week 12): 158.88 | Ferritin, Change from Baseline, Median (Week 12): 123.00 | Ferritin, Mean (Week 12): 751.19 | Ferritin, Median (Week 12): 718.00 | Ferritin, Treatment Differences, LS Mean (KRX-0502) − LS Mean (control), (SE) (Week 12): 112.95 (29.36) | Ferritin, LS Mean (Week 24, ANCOVA): 852.52 | Mean Ferritin (Week 24, LOCF, Table C): 847 ng/mL | Ferritin, Change from Baseline, Mean (Week 24): 252.49 | Ferritin, Change from Baseline, Median (Week 24): 220.00 | Ferritin, Mean (Week 24): 846.90 | Ferritin, Median (Week 24): 830.00 | Ferritin, Treatment Differences, LS Mean (KRX-0502) − LS Mean (control), (SE) (Week 24): 204.43 (32.84) | Ferritin, LS Mean (Week 36, ANCOVA): 868.11 | Mean Ferritin (Week 36, LOCF, Table C): 863 ng/mL | Ferritin, Change from Baseline, Mean (Week 36): 268.77 | Ferritin, Change from Baseline, Median (Week 36): 223.00 | Ferritin, Mean (Week 36): 863.18 | Ferritin, Median (Week 36): 818.00 | Ferritin, Treatment Differences, LS Mean (KRX-0502) − LS Mean (control), (SE) (Week 36): 241.24 (38.27) | Ferritin, LS Mean (Week 48, ANCOVA): 887.41 | Mean Ferritin (Week 48, LOCF, Table C): 882 ng/mL | Ferritin, Change from Baseline, Mean (Week 48): 287.69 | Ferritin, Change from Baseline, Median (Week 48): 233.00 | Ferritin, Mean (Week 48): 882.10 | Ferritin, Median (Week 48): 850.00 | Ferritin, Treatment Differences, LS Mean (KRX-0502) − LS Mean (control), (SE) (Week 48): 270.56 (39.85) | Ferritin, LS Mean (Week 52, ANCOVA): 901.95 | Mean Ferritin (Week 52, LOCF, Table C): 897 ng/mL | Ferritin, Change from Baseline, Mean (Week 52): 302.11 | Ferritin, Change from Baseline, Median (Week 52): 224.00 | Ferritin, Mean (Week 52): 897.12 | Ferritin, Median (Week 52): 858.00 | Ferritin, Treatment Differences, LS Mean (KRX-0502) − LS Mean (control), (SE) (Week 52): 285.65 (42.76) | Mean Ferritin, % Change from Baseline (Week 52, Table C): 50.8%
